This note sets out measurements from patent US20220339135A1, “COMPOSITIONS AND METHODS FOR MODULATING AN INFLAMMATORY RESPONSE” (Enzychem Lifesciences Corporation, priority 2019, published 2022).

The subject of test [1] is NET formation of neutrophil, BALF derived cells. As to the kind of experiment: NETosis of PAK-introduced BALF derived cells. The format is cell-based, mice. Conditions: PAK/PLAG vs PAK. As to the method:
2 hours after PAK infection, BALF derived cells were harvested and detected extracellular DNA-elastase complex by using ELISA and visualized by using confocal microscopy (×400) or scanning electron microscope (SEM) (×8000). […] were washed with PBS and mounted in DAPI-containing fluorescence microscopy mounting medium (Invitrogen). Samples were analyzed with a laser scanning confocal microscope (Carl Zeiss, Oberkochen, Germany).

Test [2] concerns MIP-2, IL-6, CXCL8 in RAW 264.7 or HaCaT cells. As to the kind of experiment: IMQ-induced chemokine release, ELISA. Conditions: PLAG 1, 10, 100 μg/ml, IMQ 12 hours, dose-dependent. The format is cell-based. The method, then: RAW 264.7 or HaCaT cells were divided into three groups: 1) control (non-treated) group, 2) IMQ treated group, and 3) IMQ/PLAG treated group. For IMQ treated group, cells were treated with 1, 10, 100 μg/ml of DMSO (as solvent control) for 1 hour and treated with 5 μg/mL of IMQ for 12 hours. For IMQ/PLAG treated group, cells were treated with 1, 10, 100 μg/ml of PLAG for 1 hour and treated with 5 μg/mL of IMQ for 12 hours. MIP-2 (A), IL-6 (B) and CXCL8 (C) in the culture supernatants were analyzed with the cognate antibody using ELISA kit. Modulation of CXCL8 expression in the IMQ treated HaCaT cells by MAPK inhibitors, SCH 772984 (ERK inhibitor, (D)), SP600125 (JNK inhibitor, (E)) and SB203580 (p38 inhibitor, (F)) was evaluated using ELISA kit (BD bioscience, New Jersey, USA) according to the manufacturer's instructions. The cytokine levels were estimated by interpolation from a standard curve using an ELISA reader (Molecular Devices, Sunnyvale, USA) at 450 nm.

Test [3] deals with MIP2 and CXCL8 in BMDM and THP-1. As to the kind of experiment: Gemcitabine-induced MIP-2 / CXCL8, RT-PCR and ELISA. The format is cell-based. Conditions: dose-dependent. From the text:
Total RNA was extracted using the Total RNA Extraction Solution (Favorgen, Taiwan), according to the manufacturer's instructions. This RNA was used in reverse transcription reactions with oligo-dT primers and M-MLV RT reagents (Promega, Madison, Wis., USA), according to the manufacturer's instructions. For RT-PCR, the synthesized cDNA was mixed with 2×PCR Master Mix (Solgent, Daejeon, Republic of Korea) and 10 pmol specific PCR primer pair following the manufacturer's protocol. […] An SYBR Green kit (Applied Biosystems, Foster City, Calif., USA) was used for real-time PCR (qPCR) analysis of cDNA according to the manufacturer's instructions. […] The relative expression levels of target genes were calculated by the 2^-ΔΔCT relative quantification method. […] The concentration of MIP-2 was measured using ELISA kits for MIP-2 (R&D Systems, Minneapolis, Minn., USA according to the manufacturers' instructions. Cytokine levels were estimated by interpolation from a standard curve generated using an ELISA reader (Molecular Devices) at 450 nm. Total RNAs from cells were isolated using TRIzol® reagent (Invitrogen, CA, USA) according to the manufacturer's instructions. RT-PCR was performed using PCR reagent (Bioassay, Daejeon, South Korea). […]
(In general: ELISA stands for enzyme-linked immunosorbent assay.)

Test [4] relates to intracellular ROS in HaCaT cells. Description: IMQ-induced intracellular ROS. The format is cell-based. Conditions: IMQ/PLAG treated cells. The method, then:
HaCaT cells were divided into two groups: 1) IMQ treated group and 2) IMQ/PLAG treated group. For IMQ treated group, cells were stimulated with IMQ (5 μg/ml) for 0, 2.5, 5, 7.5, 10, 15, 30, 60, 120 minutes. For IMQ/PLAG treated group, cells were pre-incubated with PLAG (100 μg/ml) for 1 hour and then stimulated with IMQ (5 μg/ml) for 0, 2.5, 5, 7.5, 10, 15, 30, 60, 120 minutes. (A) To detect ADORA2A on the membrane surface, cells were fixed with 2% paraformaldehyde (Sigma-Aldrich) and were blocked with PBS containing 1% BSA (Gibco, Waltham, Mass., USA). They were incubated with rabbit anti-ADORA2A antibody (Thermo) and Alexa488 conjugated anti-rabbit IgG (Invitrogen) without permeabilization. (B) To detect intracellular ROS, cells were treated with FITC conjugated-CM-H2DCFDA (Invitrogen, Carlsbad, Calif., USA) for 30 min before PLAG treating. For confocal microscopy analysis, cells were washed with PBS and mounted in DAPI-containing fluorescence microscopy mounting medium (Invitrogen). Samples were analyzed with a laser scanning confocal microscope (Carl Zeiss, Oberkochen, Germany).

For the molecule `CCCCC/C=C\C/C=C\CCCCCCCC(=O)OC(COC(C)=O)COC(=O)CCCCCCCCCCCCCCC` (racemic) [PLAG, 1-palmitoyl-2-linoleoyl-3-acetylglycerol], the “NET formation of neutrophil” value in test [1] is reported as “accelerated”. Moreover, the “MIP-2, IL-6, CXCL8 induced by IMQ” value in test [2] is “gradually decreased”. For the same molecule, in test [3], the “gemcitabine-induced chemokines MIP2 and CXCL8, transcriptional and secreted protein level” value was “effectively reduced”. For the same molecule, in test [4], the ROS formation starts came out at 2.5 min and the “ROS returns to homeostatic levels” value worked out at 10 min.
